Tested on: OCT4-positive cells in Stage 1 differentiations of hES cells
Assay: Plating assay for depletion of OCT4-positive cells in Stage 1 suspension aggregates, OCT4 immunostaining
Type: cell-based, human
Conditions: treated day 1 to 2 of Stage 1 at EC50 concentration; plated 24 hours in hESC medium; vs untreated or DMSO
Experimental: Human ES cell suspension aggregates were formed in rotational culture as described previously and differentiated through Stage 1 (definitive endoderm). About 20-30 aggregates were then plated per well in 4-well tissue culture dishes coated with MATRIGEL· diluted 1:200, and cultured for 24 hours in hESC medium (DMEM/F12, 10% XF-KSR, 10 ng/mL Activin A and 10 ng/mL Heregulin). This approach was intended to increase the contrast in OCT4 expression between undifferentiated hESCs and cells committed to differentiation. […] Stated in another way, mixed population cell cultures in hESC medium would potentially support expansion/proliferation of residual undifferentiated (hESCs), thereby show increased OCT4 gene expression, as compared to cells committed to differentiation, which would have decreased of OCT4 gene expression. Plated aggregates were immunostained for OCT4 protein and counterstained with DAPI, a nuclear stain (FIG. 12). The cell aggregates that were plated had flattened and spread out within a 24-hour period; while the centers of the aggregates were still domed. […] Brightly staining OCT4-positive cells were easily identified and distinguishable from the majority of OCT4 negative cells. OCT4-positive cells were generally found in clusters and most often within the domed area of a plated aggregate. […] Smaller aggregates residing in a larger aggregate may occur as a result of the initial stages of rotational culture, or the aggregation process, during which small clusters (primary aggregates) form initially. Aggregation of two or more primary aggregates likely leads to the formation of larger secondary aggregates, which can be 100-150 μm in diameter. Thus, it is possible that any single clusters of OCT4-positive cells exist at the center of a primary aggregate and resist differentiation. Such clusters would remain substantially undifferentiated and stain OCT4-positive. One hypothesis is that primary aggregates are specified to differentiation relative to their positioning in primary and secondary aggregates. For example, FIGS. 12A through 12E show a representative series of images, from small (primary) (e.g. FIGS. 12A and 12B) and larger (secondary) (e.g. FIGS. 12C-12E) plated aggregates containing OCT4-positive clusters (dark circles).
Depletion of OCT4-positive cells during Stage 1 differentiation was examined using the plating assay described above. Stage 1 differentiations of hES cells were treated from day 1 to 2 with the candidate compounds as described in Example 2 (chelerythrine chloride, caffeic acid and Ivermectin), at their EC50 concentrations for hES cells. Plated untreated and DMSO-treated aggregates were indistinguishable, and both contained discrete clusters of OCT4-positive cells. See FIG. 13A top and bottom panels for a DMSO treated example. The intensity of OCT4-positive staining in differentiating aggregate cell cultures treated with DMSO (control) was equivalent to undifferentiated hES cells.
Additional experiments were performed using higher concentrations of compounds and extended effects of the compounds in cell culture plated aggregates in hESC medium for 24 or 72 hours before staining (FIGS. 15 and 16). […] Another group of Stage 1 differentiating cultures were processed in parallel, but treated with 10 μm chelerythrine chloride.

22, 23-dihydroavermectin B1a+22,23-dihydroavermectin B1b [Ivermectin]
intensity for OCT4 staining: significantly decreased
